Source: ChEMBL document CHEMBL1143095, “Discovery of [(3-bromo-7-cyano-2-naphthyl)(difluoro)methyl]phosphonic acid, a potent and orally active small molecule PTP1B inhibitor” (Bioorg Med Chem Lett, 2008)

Experiments:
[1] = target: T1, Receptor-type tyrosine-protein phosphatase C (Homo sapiens, UniProt P08575); assay: Inhibition of CD45 by fluorescein diphosphate assay
T1 sequence (P08575 whole entry): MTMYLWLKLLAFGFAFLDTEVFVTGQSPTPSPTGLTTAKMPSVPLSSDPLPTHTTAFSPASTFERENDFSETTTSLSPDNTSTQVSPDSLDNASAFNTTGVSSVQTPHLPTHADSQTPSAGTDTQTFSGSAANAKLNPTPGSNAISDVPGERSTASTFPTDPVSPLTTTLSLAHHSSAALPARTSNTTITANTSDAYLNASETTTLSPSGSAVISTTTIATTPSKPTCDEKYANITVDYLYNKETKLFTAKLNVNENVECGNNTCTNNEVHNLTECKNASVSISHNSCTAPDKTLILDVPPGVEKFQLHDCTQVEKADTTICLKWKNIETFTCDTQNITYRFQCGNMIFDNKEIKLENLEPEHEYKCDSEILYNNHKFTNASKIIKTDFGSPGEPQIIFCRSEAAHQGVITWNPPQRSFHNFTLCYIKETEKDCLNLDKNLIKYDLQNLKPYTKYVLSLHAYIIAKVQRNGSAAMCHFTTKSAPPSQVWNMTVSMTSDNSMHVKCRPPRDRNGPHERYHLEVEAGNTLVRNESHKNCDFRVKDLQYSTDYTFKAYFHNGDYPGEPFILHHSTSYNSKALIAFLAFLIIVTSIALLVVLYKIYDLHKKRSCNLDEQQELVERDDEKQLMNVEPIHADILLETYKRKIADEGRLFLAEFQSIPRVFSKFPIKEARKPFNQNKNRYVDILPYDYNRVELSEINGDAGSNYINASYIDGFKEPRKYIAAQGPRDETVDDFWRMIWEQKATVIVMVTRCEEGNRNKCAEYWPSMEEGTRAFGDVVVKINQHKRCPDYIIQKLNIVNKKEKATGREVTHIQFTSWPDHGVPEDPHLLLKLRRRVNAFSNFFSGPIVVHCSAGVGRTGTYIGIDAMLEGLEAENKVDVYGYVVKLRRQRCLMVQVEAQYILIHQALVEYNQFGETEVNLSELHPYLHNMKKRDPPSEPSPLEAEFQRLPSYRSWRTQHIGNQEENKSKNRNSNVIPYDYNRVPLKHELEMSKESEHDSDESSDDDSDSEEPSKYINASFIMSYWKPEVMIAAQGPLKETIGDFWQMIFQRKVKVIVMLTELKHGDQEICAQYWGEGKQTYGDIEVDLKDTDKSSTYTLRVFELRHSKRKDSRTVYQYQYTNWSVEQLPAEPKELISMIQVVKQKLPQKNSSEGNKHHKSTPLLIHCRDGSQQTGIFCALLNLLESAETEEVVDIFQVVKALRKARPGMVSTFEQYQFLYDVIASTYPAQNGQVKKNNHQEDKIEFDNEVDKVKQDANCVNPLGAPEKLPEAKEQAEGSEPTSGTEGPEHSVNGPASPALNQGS

[2] = target: T2, Tyrosine-protein phosphatase non-receptor type 1 (Homo sapiens, UniProt P18031); assay: Inhibition of PTP1B by fluorescein diphosphate assay
T2 sequence (P18031 whole entry): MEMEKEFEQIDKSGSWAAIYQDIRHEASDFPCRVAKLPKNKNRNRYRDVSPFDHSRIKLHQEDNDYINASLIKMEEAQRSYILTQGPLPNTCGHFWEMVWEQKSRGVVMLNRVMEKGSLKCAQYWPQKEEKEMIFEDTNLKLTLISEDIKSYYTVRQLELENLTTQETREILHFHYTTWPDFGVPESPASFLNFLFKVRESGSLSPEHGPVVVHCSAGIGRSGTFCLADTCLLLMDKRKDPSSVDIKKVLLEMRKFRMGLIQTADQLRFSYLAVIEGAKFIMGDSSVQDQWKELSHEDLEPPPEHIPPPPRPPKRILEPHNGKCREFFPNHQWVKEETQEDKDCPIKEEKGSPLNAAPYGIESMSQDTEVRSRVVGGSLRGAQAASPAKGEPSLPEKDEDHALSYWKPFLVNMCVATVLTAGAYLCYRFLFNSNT

[3] = Cmax in mouse plasma at 20 mg/kg, po after 2 hrs; type: ADME, organism-based; set-up: dose 20 mg/kg, route oral
[4] = Clearance in DIO mouse at 5 mg/kg, iv and 20 mg/kg, po; type: ADME, organism-based; details: in vivo
[5] = Oral bioavailability in rat at 5 mg/kg, iv and 20 mg/kg, po; type: ADME, organism-based; details: in vivo
[6] = Clearance in Squirrel monkey at 5 mg/kg, iv and 10 mg/kg, po; type: ADME, organism-based, Saimiri sciureus; details: in vivo
[7] = Cmax in Squirrel monkey at 5 mg/kg, iv and 10 mg/kg, po; type: ADME, organism-based, Saimiri sciureus; details: in vivo
[8] = Oral bioavailability in Squirrel monkey at 5 mg/kg, iv and 10 mg/kg, po; type: ADME, organism-based, Saimiri sciureus; details: in vivo
[9] = Cmax in DIO mouse at 5 mg/kg, iv and 20 mg/kg, po; type: ADME, organism-based; details: in vivo
[10] = Elimination half life in DIO mouse at 5 mg/kg, iv and 20 mg/kg, po; type: ADME, organism-based; details: in vivo
[11] = Drug level in rat at 5 mg/kg, iv and 20 mg/kg, po after 24 hrs; type: ADME, organism-based; details: in vivo, read-out: Drug uptake
[12] = Drug level in DIO mouse at 5 mg/kg, iv and 20 mg/kg, po after 24 hrs; type: ADME, organism-based; details: in vivo, read-out: Drug uptake
[13] = Cmax in rat at 5 mg/kg, iv and 20 mg/kg, po; type: ADME, organism-based; details: in vivo
[14] = Elimination half life in rat at 5 mg/kg, iv and 20 mg/kg, po; type: ADME, organism-based; details: in vivo
Mus musculus [15] = assay: Inhibition of glucose excursion in DIO mouse glucose challenged 2 hrs before the test at 1 mg/kg by oral glucose tolerance test; type: functional
[16] = Clearance in rat at 5 mg/kg, iv and 20 mg/kg, po; type: ADME, organism-based; details: in vivo
[17] = Drug level in Squirrel monkey at 5 mg/kg, iv and 10 mg/kg, po after 24 hrs; type: ADME, organism-based, Saimiri sciureus; details: in vivo, read-out: Drug uptake
[18] = Oral bioavailability in DIO mouse at 5 mg/kg, iv and 20 mg/kg, po; type: ADME, organism-based; details: in vivo
Mus musculus [19] = species: Mus musculus; assay: Inhibition of glucose excursion in DIO mouse glucose challenged 2 hrs before the oral glucose tolerance test; type: functional
Mus musculus [20] = assay: Inhibition of glucose excursion in DIO mouse glucose challenged 2 hrs before the test at 3 mg/kg by oral glucose tolerance test; type: functional
Mus musculus [21] = assay: Inhibition of glucose excursion in DIO mouse glucose challenged 2 hrs before the test at 10 mg/kg by oral glucose tolerance test; type: functional
[22] = Elimination half life in Squirrel monkey at 5 mg/kg, iv and 10 mg/kg, po; type: ADME, organism-based, Saimiri sciureus; details: in vivo
[23] = Cmax in C57BL/6 mouse plasma at 10 mg/kg; type: ADME, organism-based; set-up: dose 10 mg/kg
[24] = Oral bioavailability in rat; type: ADME, organism-based; details: in vivo
[25] = Elimination half life in rat plasma; type: ADME, organism-based
[26] = Cmax in rat plasma at 20 mg/kg; type: ADME, organism-based; set-up: dose 20 mg/kg

SMILES	IC50 [1] [nM]	IC50 [2] [nM]	also measured
COCc1ccc2cc(Br)c(C(F)(F)P(=O)(O)O)cc2c1	> 50000	510	–
CS(=O)(=O)Cc1ccc2cc(Br)c(C(F)(F)P(=O)(O)O)cc2c1	> 50000	1300	–
N#Cc1ccc2cc(Br)c(C(F)(F)P(=O)(O)O)cc2c1	> 50000	–	clearance [4]: 42.6 mL/h/kg; bioavailability [5]: 4%; clearance [6]: 1.2 mL/h/kg; Cmax [7]: 24 µM; bioavailability [8]: 2%; Cmax [9]: 17.4 µM; half-life [10]: 6 h; concentration at 24 h [11]: 45.3 µM; concentration at 24 h [12]: 9 µM; Cmax [13]: 75.6 µM; half-life [14]: > 17 h; inhibition in vivo at 1 mg/kg (Mus musculus [15]): 60%; clearance [16]: 1.8 mL/h/kg; concentration at 24 h [17]: 19 µM; bioavailability [18]: 24%; ED50 (Mus musculus [19]): 0.8 mg/kg; inhibition in vivo at 3 mg/kg (Mus musculus [20]): 80%; inhibition in vivo at 10 mg/kg (Mus musculus [21]): 100%; half-life [22]: > 30 h
Cc1ccc2ccc(C(F)(F)P(=O)(O)O)cc2n1	> 50000	> 50000	–
N#Cc1ccc2cc(C(F)(F)P(=O)(O)O)c(Br)cc2c1	> 50000	310	–
NC(=O)c1ccc2cc(Br)c(C(F)(F)P(=O)(O)O)cc2n1	> 50000	250	Cmax [23]: 0.3 µM
O=P(O)(O)C(F)(F)c1cc2ccccc2cc1Br	–	–	Ki [2]: 179000 nM
O=C(NCc1ccccc1)c1ccc2cc(Br)c(C(F)(F)P(=O)(O)O)cc2n1	> 50000	45	–
O=C(Nc1cccc(F)c1)c1ccc2cc(Br)c(C(F)(F)P(=O)(O)O)cc2n1	> 50000	27	–
O=C(Nc1ccccc1)c1ccc2cc(Br)c(C(F)(F)P(=O)(O)O)cc2n1	> 50000	60	–
CNC(=O)c1ccc2cc(Br)c(C(F)(F)P(=O)(O)O)cc2n1	> 50000	1260	–
CC(Cc1ccc(C(F)(F)P(=O)(O)O)cc1)(c1ccccc1)n1nnc2ccccc21 (centres undefined)	50000	16	–
O=C(O)c1cccc(/C=C/c2ccc3cc(Br)c(C(F)(F)P(=O)(O)O)cc3n2)c1	37800	7	–

The next lines start with results.

IC50 [1] [nM]	IC50 [2] [nM]	SMILES	also measured
26800	90	N#CCc1ccc2cc(Br)c(C(F)(F)P(=O)(O)O)cc2c1	Cmax [3]: 6 µM
> 50000	1500	CC(=O)NCc1ccc2cc(Br)c(C(F)(F)P(=O)(O)O)cc2c1	–
> 50000	160	O=P(O)(O)C(F)(F)c1cc2nc(/C=C/c3ccccc3)ccc2cc1Br	–
> 50000	14000	Cc1ccc2cc(Br)c(C(F)(F)P(=O)(O)O)cc2n1	bioavailability [24]: 5%; half-life [25]: > 8 h; Cmax [26]: 43.3 µM
> 50000	330	Cc1ccc2cc(Br)c(C(F)(F)P(=O)(O)O)cc2c1	–
> 50000	–	O=C(c1ccccc1)C(Cc1ccc(C(F)(F)P(=O)(O)O)c(Br)c1)c1ccccc1 (centres undefined)	–
